Experiment: Stability test 1: open solvent atmosphere, XRPD
Format: physicochemical
Settings: room temperature

COc1cc(N2CCC(N3CCN(C)CC3)CC2)c(C)cc1Nc1ncc(Br)c(Nc2ccc(C)cc2P(C)(C)=O)n1 [Crystal form 1, (2-((5-bromo-2-((2-methoxy-5-methyl-4-(4-(4-methylpiperazin-1-yl)piperidin-1-yl)phenyl)amino)pyrimidin-4-yl)amino)-5-methylphenyl)dimethylphosphorus oxide dihydrate]
Crystal form 1: Analysis of result (XRPD) Day 4 (Acetone atmosphere) | Analysis of result (XRPD) Day 6 (Acetone atmosphere) | Analysis of result (XRPD) Day 4 (Ethanol atmosphere) | Analysis of result (XRPD) Day 6 (Ethanol atmosphere) | Analysis of result (XRPD) Day 4 (Ethyl acetate atmosphere) | Analysis of result (XRPD) Day 6 (Ethyl acetate atmosphere) | Analysis of result (XRPD) Day 4 (Tetrahydrofuran atmosphere) | Analysis of result (XRPD) Day 6 (Tetrahydrofuran atmosphere)

Reference: patent US20240376138A1, “Crystal Forms, Preparation Method And Application Of Aryl Phosphine Oxide Compound” (Chengdu Di'Ao Jiuhong Pharmaceutical Factory, priority 2021, published 2024)
